# According to patent EP2608671B1, “COMPOUNDS FOR TREATMENT OF CANCER” (Gtx, Inc., priority 2010, dated 2012):
# Where two headings read alike, the source gives them in different places.
# Columns and labels:
# B16-F1 = assay: SRB cell growth inhibition (cytotoxicity) assay; assay type: cell-based, mouse
# Text: (§1) The only compounds which belong to the invention are the ones falling under the scope of formula (XI).
# A375 = assay: SRB cell growth inhibition (cytotoxicity) assay; assay type: cell-based, human
# WM-164 = assay: SRB cell growth inhibition (cytotoxicity) assay; assay type: cell-based, human; conditions: Homo sapiens
# PC-3 = assay: cells; conditions: Homo sapiens
# Text: as §1
# Cells were stained with SRB solution.
# Cells. […] Cells between the third and fifth passages were used for experiments.
# Cell growth inhibition studies. […] Cells were stained with sulphorhodamine B (SRB) solution.
# DU 145 = assay: cells; conditions: Homo sapiens
# LNCaP = assay: cells; conditions: Homo sapiens
# PPC-1 = assay: cells; conditions: Homo sapiens
# [1] = PC-3, 96 h, read-out: IC50 ± SEM (nM), PC-3
# [2] = DU-145, 96 h, read-out: IC50 ± SEM (nM), DU 145
# [3] = 96 h, read-out: IC50 ± SEM (nM), LNCaP
# [4] = PPC-1, 96 h, read-out: IC50 ± SEM (nM), PPC-1
# [5] = Mus musculus; B16-F1 melanoma cells, 48 h, SRB; read-out: IC50 ± SEM (nM) B16-F1
# [6] = Homo sapiens, A-375; A375 melanoma cells, 48 h, SRB; read-out: IC50 ± SEM (nM) A375
# [7] = WM164 melanoma cells, 48 h, SRB, read-out: IC50 ± SEM (nM) WM164
# [8] = DU-145, 96 h, read-out: IC50 ± SEM (nM) Du 145
# [9] = Mus musculus, B16-F1; read-out: IC50 ± SEM (nM), B16-F1
# [10] = Homo sapiens, A-375, 96 h; read-out: IC50 ± SEM (nM), A375
Structure (SMILES),IC50 (PC-3; [1]),IC50 (DU 145; [2]),IC50 (LNCaP; [3]),IC50 (PPC-1; [4]),IC50 (B16-F1; [5]),IC50 (A375; [6]),IC50 (WM-164; [7]),IC50 (B16-F1; [9]),IC50 (A375; [10]),also measured
"COc1cc(/C=C/c2csc(-c3ccccc3)n2)cc(OC)c1OC [3b, (E)-2-Phenyl-4-(3,4,5-trimethoxystyryl)thiazole]",> 10000 nM,> 10000 nM,> 10000 nM,> 10000 nM,–,–,–,–,–,"IC50 (B16-F1; Mus musculus, B16-F1, read-out: IC50 ± SEM (nM), B16-F1): 32800 ± 13000 nM; IC50 (A375; Homo sapiens, A-375, 96 h, read-out: IC50 ± SEM (nM), A375): > 10000 nM; IC50 (WM-164; WM164, 96 h, read-out: IC50 ± SEM (nM), WM-164): 30800 ± 12000 nM"
"COc1ccc(-c2nc(C(=O)c3ccc(F)cc3)cn2C)cc1 [12cba, (4-fluorophenyl)(2-(4-methoxyphenyl)-1-methyl-1H-imidazol-4-yl)methanone]",> 10000 nM,–,> 10000 nM,> 10000 nM,> 10000 nM,> 10000 nM,> 10000 nM,–,–,IC50 (DU 145; [8]): > 10000 nM
"O=C(c1csc(-c2cc3ccccc3[nH]2)n1)c1cc2ccccc2[nH]1 [compound 8, (2-(1H-Indol-2-yl)thiazol-4-yl)(1H-indol-2-yl)methanone]",–,–,–,–,–,–,–,–,–,"IC50 (B16-F1; Mus musculus, B16-F1; Table 6A; read-out: IC50 (nM), B16-F1): 570 nM; IC50 (A375; Homo sapiens, A-375; Table 6A; read-out: IC50 (nM), A375): 318 nM; IC50 (WM-164; WM164, Table 6A, read-out: IC50 (nM), WM164): 404 nM; IC50 (PC-3; PC-3, read-out: IC50 (nM), PC-3): 704 nM; IC50 (DU 145; DU-145, read-out: IC50 (nM), DU 145): 580 nM; IC50 (LNCaP; read-out: IC50 (nM), LNCaP): 346 nM; IC50 (PPC-1; PPC-1, read-out: IC50 (nM), PPC-1): 230 nM"
"Cc1ccc(C(=O)c2c[nH]c(-c3ccccc3)n2)cc1 [12ah, (2-phenyl-1H-imidazol-4-yl)(p-tolyl)methanone]",–,–,–,–,–,–,–,–,–,"IC50 (B16-F1; Mus musculus, B16-F1; SRB, 48 h; Table 11; read-out: IC50 (nM), B16-F1): > 10000 nM; IC50 (A375; Homo sapiens, A-375; SRB, 48 h; Table 11; read-out: IC50 (nM), A375): > 10000 nM; IC50 (WM-164; WM164, SRB, 48 h, Tables 11, 12, read-out: IC50 (nM), WM164): > 10000 nM; IC50 (PC-3; PC-3, 96 h, read-out: IC50 (nM), PC-3): > 10000 nM; IC50 (DU 145; DU-145, 96 h, read-out: IC50 (nM), Du 145): > 10000 nM; IC50 (LNCaP; 96 h, read-out: IC50 (nM), LNCaP): > 10000 nM; IC50 (PPC-1; PPC-1, 96 h, read-out: IC50 (nM), PPC-1): > 10000 nM"
"CO/N=C(/c1cc(OC)c(OC)c(OC)c1)c1csc(-c2ccccc2)n1 [2f-cis, (Z)-(2-Phenylthiazol-4-yl)(3,4,5-trimethoxyphenyl)methanone O-methyl oxime]",> 10000 nM,> 10000 nM,> 10000 nM,> 10000 nM,–,–,–,3800 ± 1600 nM,2900 ± 1200 nM,"IC50 (WM-164; WM164, SRB assay, 96 h, Table 2, read-out: IC50 ± SEM (nM), WM-164): 3400 ± 1800 nM"
"O=C(c1cc(O)c(O)c(O)c1)c1c[nH]c(-c2cc(O)c(O)c(O)c2)n1 [13ea, (3,4,5-trihydroxyphenyl)(2-(3,4,5-trihydroxyphenyl)-1H-imidazol-4-yl)methanone]",> 10000 nM,–,> 10000 nM,> 10000 nM,> 10000 nM,> 10000 nM,> 10000 nM,–,–,IC50 (DU 145; [8]): > 10000 nM
"COc1cc(C(=O)c2csc(-c3ccc(CC#N)cc3)n2)cc(OC)c1OC [2n, 2-(4-(4-(3,4,5-Trimethoxybenzoyl)thiazol-2-yl)phenyl)acetonitrile]",–,–,–,–,–,–,–,–,–,"IC50 (B16-F1; Mus musculus, B16-F1; Table 6; read-out: IC50 ±SEM (nM), B16-F1): 290 nM; IC50 (A375; Homo sapiens, A-375; Table 6; read-out: IC50 ±SEM (nM), A375): 210 nM; IC50 (PC-3; PC-3, read-out: IC50 ±SEM (nM), PC-3): 131 nM; IC50 (DU 145; DU-145, read-out: IC50 ±SEM (nM), DU 145): 143 nM; IC50 (LNCaP; read-out: IC50 ±SEM (nM), LNCaP): 101 nM; IC50 (PPC-1; PPC-1, read-out: IC50 ±SEM (nM), PPC-1): 99 nM"
"COc1cc(C(=O)c2csc(-c3ccc(CNC(=O)OC(C)(C)C)cc3)n2)cc(OC)c1OC [68a, tert-Butyl 4-(4-(3,4,5-trimethoxybenzoyl)thiazol-2-yl)benzylcarbamate]",3100 nM,4400 nM,2600 nM,2700 nM,–,–,–,2900 ± 400 nM,7900 ± 500 nM,–
"COc1cc(/C(=N\N)c2csc(-c3ccccc3)n2)cc(OC)c1OC [2d-trans, (E)-4-(hydrazono(3,4,5-trimethoxyphenyl)methyl)-2-phenylthiazole]",1040 nM,1210 nM,1300 nM,966 nM,–,–,–,1800 ± 700 nM,600 ± 200 nM,–
"O=C(c1cc(O)c(O)c(O)c1)c1c[nH]c(-c2ccc(O)c(O)c2)n1 [13ha, (2-(3,4-dihydroxyphenyl)-1H-imidazol-4-yl)(3,4,5-trihydroxyphenyl)methanone]",–,–,–,–,> 10000 nM,> 10000 nM,> 10000 nM,–,–,–
